In PMC4399838, “Antipsychotic-Like Effect of the Muscarinic Acetylcholine Receptor Agonist BuTAC in Non-Human Primates” (PLoS ONE, 2015):
“Also recorded” adds a separate entry of the source.

Assays:
[1] = target: T1, M2AChR (Homo sapiens, UniProt P08172); test: Competitive radioligand binding
T1 sequence (P08172 1-466): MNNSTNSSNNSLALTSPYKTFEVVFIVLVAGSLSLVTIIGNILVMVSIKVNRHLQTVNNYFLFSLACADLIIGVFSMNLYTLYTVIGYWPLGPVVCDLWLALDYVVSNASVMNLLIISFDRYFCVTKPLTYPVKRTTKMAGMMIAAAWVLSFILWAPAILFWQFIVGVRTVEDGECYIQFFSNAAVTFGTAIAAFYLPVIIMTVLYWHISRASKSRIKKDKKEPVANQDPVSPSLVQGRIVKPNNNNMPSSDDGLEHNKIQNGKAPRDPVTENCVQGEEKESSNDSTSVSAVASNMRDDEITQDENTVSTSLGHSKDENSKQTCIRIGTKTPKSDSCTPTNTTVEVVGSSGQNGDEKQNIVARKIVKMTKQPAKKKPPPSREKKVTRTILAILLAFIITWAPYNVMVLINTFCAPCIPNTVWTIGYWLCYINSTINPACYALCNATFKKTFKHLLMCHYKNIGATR

[2] = test system: EPS sensitized monkeys; test: Side effects (EPS) of BuTAC in EPS-sensitized monkeys; format: in vivo, Cebus Apella
Experimental: Seven male Cebus Apella monkeys were used for evaluation the anti-amphetamine effect and the side effect profile of BuTAC. These monkeys were never before administered antipsychotics and had never experienced EPS, but had previously been administered amphetamine. For further evaluation of the EPS potential of BuTAC, the compound was tested in four male and female monkeys, all sensitized to drug-induced EPS by earlier chronic treatment with classical antipsychotic drugs.
The EPS sensitized monkeys were originally caught in the wild and had been at the laboratory for 13–20 years at the time of testing. The EPS naïve monkeys were born in captivity and had been at the laboratory for 7 years at the time of testing. They were between 11 and 18 years old, when the studies were initiated. The monkeys weighed between 2.5 kg (smallest female) and 5 kg (largest male). Their weight was monitored weekly and they were regularly checked by a veterinarian.
The rated primate behaviours and symptoms were the following: unrest, stereotypy, arousal, sedation and bradykinesia (Table 1). All monkeys were videotaped in 90-sec. sessions at specific time points throughout the test sessions. The videotapes were rated for amphetamine-induced behaviours and EPS by two experienced raters blinded to the treatment of the animal by means of a rating scale adapted from Peacock et al. and previously described by Andersen et al. (Table 1). In case of any discrepancy between the two ratings, the recording in question was re-evaluated and a rating agreed upon. The monkeys were videotaped at t = 30, 60, 90, 135, 150, 165, 180, 240, 300 min after BuTAC (or vehicle) administration. For the combination studies, d-amphetamine was injected at t = 120 min. Oral dyskinesia was measured in counts per 90 sec. The severity of other behaviours and symptoms were rated on a scale ranging from 0 (not present) to 6 (extreme presence).
For evaluation of anti-amphetamine effects, BuTAC was tested in doses of 0.001, 0.003, 0.01 mg/kg in combination with 0.5 mg/kg of d-amphetamine. BuTAC or peanut oil vehicle was injected s.c. at approximately 9 a.m. Pre-treatment time before s.c. injection of amphetamine was 120 min. For evaluation of side effects, BuTAC was tested alone at doses of 0.001, 0.003 and 0.01 mg/kg in antipsychotic-naïve monkeys and at doses of 0.003 and 0.01 mg/kg in monkeys sensitized to extrapyramidal side effects (EPS) by earlier long-term treatment with first generation antipsychotics. […] None of the animals were sacrificed.

[3] = test system: monkeys; test: BuTAC-induced emesis and its inhibition by domperidone; format: in vivo, Cebus Apella; details: BuTAC 0.01 mg/kg alone; observed 300 minutes
Experimental: S1 Table. Emesis BuTAC / Domperidone
BuTAC 0.01 mg/kg / 1 in 7
Domperidone was purchased from Tocris Bioscience (Bristol, United Kingdom) and dissolved
in 0.9% saline. The compound was administered subcutaneously where after the animals

[4] = target: T2, human M3 muscarinic receptor (Homo sapiens, UniProt P20309); parameters: method as in Watt et al. 2013 [10]; details: antagonist mode, ref Watt et al. 2013 [10], cited from earlier work
T2 construct: purchased PerkinElmer Life and Analytical Sciences, Boston, MA
T2 sequence (P20309 whole entry): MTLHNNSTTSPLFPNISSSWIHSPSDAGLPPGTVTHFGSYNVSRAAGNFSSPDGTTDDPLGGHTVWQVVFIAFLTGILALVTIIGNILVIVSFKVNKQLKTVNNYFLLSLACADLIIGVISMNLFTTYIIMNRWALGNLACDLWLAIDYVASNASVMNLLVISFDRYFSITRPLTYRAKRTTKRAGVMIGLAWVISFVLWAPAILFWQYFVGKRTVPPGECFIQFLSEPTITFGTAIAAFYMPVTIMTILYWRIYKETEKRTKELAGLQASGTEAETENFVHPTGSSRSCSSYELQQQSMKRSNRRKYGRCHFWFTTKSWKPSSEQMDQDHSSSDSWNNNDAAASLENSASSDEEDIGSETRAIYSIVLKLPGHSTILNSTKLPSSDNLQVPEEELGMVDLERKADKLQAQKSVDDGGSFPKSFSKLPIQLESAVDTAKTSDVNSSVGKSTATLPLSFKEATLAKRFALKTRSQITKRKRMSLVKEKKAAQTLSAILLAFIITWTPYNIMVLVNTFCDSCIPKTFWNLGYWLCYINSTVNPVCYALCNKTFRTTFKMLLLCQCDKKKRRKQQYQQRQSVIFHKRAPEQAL

[5] = target: T3, human M5 muscarinic receptor (Homo sapiens, UniProt P08912); parameters: method as in Watt et al. 2013 [10]; details: ref Watt et al. 2013 [10], cited from earlier work
T3 construct: purchased PerkinElmer Life and Analytical Sciences, Boston, MA
T3 sequence (P08912 1-532): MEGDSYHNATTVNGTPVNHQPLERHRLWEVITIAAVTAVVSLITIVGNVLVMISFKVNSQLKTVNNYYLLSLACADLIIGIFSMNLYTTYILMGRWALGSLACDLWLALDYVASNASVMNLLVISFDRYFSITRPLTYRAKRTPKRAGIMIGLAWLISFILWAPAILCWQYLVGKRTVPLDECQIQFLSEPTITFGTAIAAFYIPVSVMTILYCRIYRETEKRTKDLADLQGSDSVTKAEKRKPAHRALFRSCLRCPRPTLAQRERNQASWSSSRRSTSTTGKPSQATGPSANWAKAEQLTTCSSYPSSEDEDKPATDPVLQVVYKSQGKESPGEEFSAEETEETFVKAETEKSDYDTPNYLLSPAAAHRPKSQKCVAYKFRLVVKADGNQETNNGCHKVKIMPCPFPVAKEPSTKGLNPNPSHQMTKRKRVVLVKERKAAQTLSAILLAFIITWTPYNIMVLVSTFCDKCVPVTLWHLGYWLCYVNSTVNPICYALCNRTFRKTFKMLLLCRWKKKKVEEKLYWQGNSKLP

[6] = BuTAC 0.01 mg/kg, four EPS sensitized monkeys

Structure (SMILES) | Ki [1] [nM] | EPS ([2]; BuTAC 0.003 mg/kg) | Mild bradykinesia (monkeys affected) [2, 6] | Oral dyskinesia and dystonia [2, 6] | Sedation (monkeys affected) [2, 6] | EPS ([2]; lower doses, 0.001- or 0.003 mg/kg of BuTAC (discussion)) | Emetic events (vomiting), monkeys with emesis [3] | Rel pIC50 ([4]; negative log-transformed) [M] | % Inhibition [4] [%] | Rel pEC50 ([5]; agonist mode, negative log-transformed) [M] | % Emax ([5]; agonist mode) [%] | Rel pIC50 ([5]; antagonist mode, negative log-transformed) [M] | % Inhibition ([5]; antagonist mode) [%]
CCCSc1nsnc1[C@H]1CN2CCC[C@H]1C2 [PTAC, (5R,6R) 6-(3-propylthio-1,2,5-thiadiazol-4-yl)-1-azabicyclo-[3.2.1]-octane] | 3.8 | – | – | – | – | – | – | – | – | – | – | – | –
CCCCSc1nsnc1[C@H]1CN2CCC[C@H]1C2 [BuTAC, (5R,6R)-6-(3-butylthio-1,2,5-thiadiazol-4-yl)-1-azabicyclo[3.2.1]octane] | – | no EPS | Two | not observed; also recorded: no signs | all four | no signs of EPS | 7/7 | 8.55 ± 8.59 | 100.00 ± 0.00 | 7.63 ± 7.41 | 10.77 ± 10.87 | 8.29 ± 8.16 | 96.31 ± 3.87
